# Measurements published in ChEMBL document CHEMBL5335870, “Discovery of Hepatitis B Virus Surface Antigen Suppressor GS-8873” (ACS Med Chem Lett, 2024).
# How the values were obtained:
# [1] = tested on: Hepatitis B virus; assay: Antiviral activity against genotype D HBV infected in sodium taurocholate co-transporting polypeptide receptor-expressing stable HepG2 cell line assessed as suppression of HBsAg level incubated for 5 days by multiplex chemiluminescent MSD assay; type: functional, organism-based; details: HepG2, 120 h
# [2] = Clearance in Sprague-Dawley rat at […], iv measured after 24 hrs by LC/MS/MS method; type: ADME, organism-based; details: in vivo
# [3] = Oral bioavailability in Sprague-Dawley rat after 24 hrs by LC/MS/MS method; type: ADME, organism-based; details: in vivo
SMILES,EC50 [1] [nM],clearance [2] [mL/min/kg],bioavailability [3] [%]
COCCCOc1cc2c(cc1OCCCOC)[C@H]1CCC(C)(C)N1n1cc(C(=O)O)c(=O)cc1-2,11,–,–
COCCCOc1cc2c(cc1Cl)-c1cc(=O)c(C(=O)O)cn1N1CCC(C)(C)[C@H]21,12,–,–
COCCCOc1cc2c(cc1Cl)-c1cc(=O)c(C(=O)O)cn1N(C(C)(C)C)[C@@H]2C,390,–,–
CC(C)(C)N1Cc2cc(OCC3CC(F)(F)C3)c(Cl)cc2-c2cc(=O)c(C(=O)O)cn21,12,4.17,56
CC(C)(C)N1Cc2cc(-c3ccccn3)c(Cl)cc2-c2cc(=O)c(C(=O)O)cn21,47,–,–
COCCCOc1cc2c(cc1S(C)(=O)=O)-c1cc(=O)c(C(=O)O)cn1N1[C@@H]2CCC1(C)C,52,–,–
COCCCOc1cc2c(cc1Cl)-c1cc(=O)c(C(=O)O)cn1N1[C@@H]2CC[C@@H]1C,5.4,–,–
COCCCOc1cc2c(cc1Cl)-c1cc(=O)c(C(=O)O)cn1N1CCC[C@H]21,55,–,–
COCCCOc1cc2c(cc1Cl)-c1cc(=O)c(C(=O)O)cn1N(C(C)(C)C)[C@H]2C,97,–,–
CN(C)CCCOc1cc2c(cc1Cl)-c1cc(=O)c(C(=O)O)cn1N(C(C)(C)C)C2,620,–,–
COCCCOc1cc2c(cc1OC(C)(C)C)-c1cc(=O)c(C(=O)O)cn1N1[C@@H]2CCC1(C)C,78,–,–
COCCCOc1cc2c(cc1Cl)-c1cc(=O)c(C(=O)O)cn1N1[C@H](C)CC[C@H]21,11,–,–
COCCOCc1cc2c(cc1Cl)-c1cc(=O)c(C(=O)O)cn1N(C(C)(C)C)C2,210,–,–
COCCCOc1cc2c(cc1Cl)-c1cc(=O)c(C(=O)O)cn1N1CC(C)(C)C[C@H]21,41,–,–
CC(C)(C)N1Cc2cc(C#CC3CC3)c(Cl)cc2-c2cc(=O)c(C(=O)O)cn21,16,–,–
COCCCOc1cc2c(cc1Cl)-c1cc(=O)c(C(=O)O)cn1N1[C@@H]2CCC12COC2,72,–,–
COCCCOc1cc2c(cc1Cl)-c1cc(=O)c(C(=O)O)cn1N1[C@@H]2CCC12CC2,1,–,–
COCCCOc1cc2c(cc1Cl)-c1cc(=O)c(C(=O)O)cn1N1[C@H]2CCC1(C)C,420,–,–
COCCCNc1cc2c(cc1Cl)-c1cc(=O)c(C(=O)O)cn1N(C(C)(C)C)C2,18,–,–
COCCCOc1cc2c(cc1C1COC1)-c1cc(=O)c(C(=O)O)cn1N1[C@@H]2CCC1(C)C,13,–,–

# The remaining compounds from weak to strong by EC50 [1], led by results:
EC50 [1] [nM],clearance [2] [mL/min/kg],bioavailability [3] [%],SMILES
4,–,–,COCCCOc1cc2c(cc1Cl)-c1cc(=O)c(C(=O)O)cn1N1[C@@H]2CC1(C)C
3.9,25,–,CC(C)(C)N1Cc2cc(OCCCOc3cnn(C(F)F)c3)c(Cl)cc2-c2cc(=O)c(C(=O)O)cn21
2.9,–,–,COCCCOc1cc2c(cc1Cl)-c1cc(=O)c(C(=O)O)cn1N1[C@@H]2COCC1(C)C
2.1,15,30,CC(C)(C)N1Cc2cc(C#Cc3cnc(N4CC5CCC(C4)N5C4COC4)nc3)c(Cl)cc2-c2cc(=O)c(C(=O)O)cn21
2.1,16.7,84,COCCCOc1cc2c(cc1OC)-c1cc(=O)c(C(=O)O)cn1N1[C@@H]2CCC1(C)C
2,–,–,COCCCOc1cc2c(cc1Cl)-c1cc(=O)c(C(=O)O)cn1N1[C@@H]2CCCC1(C)C
1.5,–,–,CC(C)(C)N1Cc2cc(C#Cc3ccc(N4CC5CCC(C4)O5)nc3)c(Cl)cc2-c2cc(=O)c(C(=O)O)cn21
1.1,8,47,COCCCOc1cc2c(cc1OC(F)(F)F)-c1cc(=O)c(C(=O)O)cn1N1[C@@H]2CCC1(C)C
1,–,–,CC(C)(C)N1Cc2cc(N3CCCC3)c(Cl)cc2-c2cc(=O)c(C(=O)O)cn21
0.78,16.7,–,COCCCOc1cc2c(cc1C1CC1)-c1cc(=O)c(C(=O)O)cn1N1[C@@H]2CCC1(C)C
0.45,–,–,CCc1cc2c(cc1OCCCOC)[C@H]1CCC(C)(C)N1n1cc(C(=O)O)c(=O)cc1-2
